Experimental data published in patent publication US20210094922A1, “Dyes for Analysis of Soluble Protein Aggregates or Misfolded Protein Oligomers” (The Penn State Research Foundation, priority 2018, published 2021).

Tests used:
SOD1(V31A)-Halo [1] = molecular target: SOD1(V31A)-Halo (Rhodococcus rhodochrous, UniProt P0A3G2, A155T/A167V/A172T/A224E/C128F/C176G/D78G/E160K/E257K/H272N/K175M/K195N/L47V/L88M/N227D/P291S/S58T/T264A/Y273L/Y87F); experiment: In vitro heat-induced aggregation of purified SOD1(V31A)-Halo-4 conjugate; format: biochemical; set-up: made in house; host or cells: E. coli BL21 DE3* (pET29b; pBAD σ32-I54N co-expressed)
Sequence of SOD1(V31A)-Halo (Rhodococcus rhodochrous, UniProt P0A3G2, A155T/A167V/A172T/A224E/C128F/C176G/D78G/E160K/E257K/H272N/K175M/K195N/L47V/L88M/N227D/P291S/S58T/T264A/Y273L/Y87F) (P0A3G2 other isoform, or with tags, fused parts or gaps with the stated changes): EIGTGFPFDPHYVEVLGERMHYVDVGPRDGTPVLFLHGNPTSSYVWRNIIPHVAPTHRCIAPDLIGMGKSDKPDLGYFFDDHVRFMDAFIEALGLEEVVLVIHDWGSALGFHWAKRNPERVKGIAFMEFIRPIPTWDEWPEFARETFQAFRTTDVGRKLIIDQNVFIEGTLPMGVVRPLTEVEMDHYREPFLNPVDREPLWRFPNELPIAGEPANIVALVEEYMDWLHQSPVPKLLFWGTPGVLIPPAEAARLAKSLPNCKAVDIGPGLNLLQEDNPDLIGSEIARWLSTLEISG
Experimental: (§1) (a) Purified SOD1(V31A)-Halo and Halo-Tag proteins (42 μM), both of which were conjugated with 4 (21 μM), were incubated at varying temperatures (25, 37, 38.9, 41.8, 45.6, 50.7, 54.5, 57.2, and 59° C.). As control samples, 4 (21 μM) was prepared in buffer, 1,4-dioxane, glycerol, BSA (2 mg/mL). Fluorescence intensity was recorded at Ex=530 nm/Em=600 nm. All readings were normalized to intensity of the Halo-Tag-4 conjugate at 25° C. Fluorescence of protein samples was also visualized via UV transilluminator. In addition, protein samples were centrifuged at 21,000 g for 30 min at 4° C. to analyze their insoluble fraction using fluorescence of 4 as signal on SDS-PAGE gel. […] This fluorescence was not originated from aggregation of Halo-Tag domain, as evidenced by the low fluorescence of the Halo-4 conjugate and lack of significant insoluble fraction at these temperatures. Error bars: standard error (n=3). (b) Purified SOD1(V31A)-Halo and Halo-Tag proteins ([…]) were conjugated with 4 (21 μM) and incubated at 54.5° C. Fluorescence was recorded using Agilent Carey Eclipse fluorescence spectrophotometer with temperature control. Buffer condition: 50 mM Tris-HCl, pH 7.5, 100 mM NaCl, 83 mM EDTA. Parameters for fluorescence measurement: 4 (Ea=530 nm/Em=600 nm).
(§2) (a) Purified SOD1(V31A)-Halo (42 μM) was conjugated with 4 (21 μM) and incubated at 54.5° C. Fluorescence was recorded using Agilent Carey Eclipse fluorescence spectrophotometer with temperature control. Turbidity was recorded using Agilent 300 UV-Vis spectrophotometer. Buffer condition: 50 mM Tris-HCl, pH 7.5, 100 mM NaCl, 83 mM EDTA. (b) Kinetics of fluorescence increases from the SOD1(V31A)-Halo-4 conjugate (red curve) was compared to the kinetics of protein misfolding (black curve) as measured by Tryptophan fluorescence change. Fluorescence was recorded using Agilent Carey Eclipse fluorescence spectrophotometer with temperature control. Experiments were carried out at 54.5° C. Parameters for fluorescence measurement: 4 (Ex=530 nm/Em=600 nm) and Trp (Ex=290 nm/Em=330 and 345 nm). Error bars: standard error (n=3).

SOD1(V31A)-Halo [2] = molecular target: SOD1(V31A)-Halo (UniProt P00441+P0A3G2, A155T/A167V/A172T/A224E/C128F/C176G/D78G/E160K/E257K/H272N/K175M/K195N/L47V/L88M/N227D/S58T/T264A/V32A/Y273L/Y87F); experiment: as above; format: biochemical; set-up: made in house; host or cells: E. coli BL21 DE3* (pET29b; pBAD σ32-I54N co-expressed)
Sequence of SOD1(V31A)-Halo (UniProt P00441+P0A3G2, A155T/A167V/A172T/A224E/C128F/C176G/D78G/E160K/E257K/H272N/K175M/K195N/L47V/L88M/N227D/S58T/T264A/V32A/Y273L/Y87F) (P00441+P0A3G2 fused with the stated changes): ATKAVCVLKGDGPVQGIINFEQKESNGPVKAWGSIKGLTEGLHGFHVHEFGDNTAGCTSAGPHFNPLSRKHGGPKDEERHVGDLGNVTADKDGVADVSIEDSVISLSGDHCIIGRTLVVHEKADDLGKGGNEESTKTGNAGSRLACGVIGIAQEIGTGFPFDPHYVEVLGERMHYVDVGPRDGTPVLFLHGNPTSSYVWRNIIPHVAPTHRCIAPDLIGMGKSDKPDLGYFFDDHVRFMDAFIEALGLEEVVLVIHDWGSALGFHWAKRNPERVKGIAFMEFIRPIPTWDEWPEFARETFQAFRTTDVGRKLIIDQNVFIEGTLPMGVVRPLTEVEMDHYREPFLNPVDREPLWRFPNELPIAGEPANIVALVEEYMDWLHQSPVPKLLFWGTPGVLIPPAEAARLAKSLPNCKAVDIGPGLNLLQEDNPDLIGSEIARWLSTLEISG
Experimental: as §1, §2

SOD1-A4V-Halo = SOD1-A4V-Halo (Homo sapiens, UniProt P00441, A5V); experiment: Two-color imaging of SOD1-A4V-Halo in HEK293T cells under MG132; format: cell-based; set-up: expressed in transfected cells; host or cells: HEK293T; conditions: 4 and 5 both at 0.5 μM, 5 μM MG132 for 8 h
Sequence of SOD1-A4V-Halo (P00441 with tags, fused parts or gaps A5V limits assumed): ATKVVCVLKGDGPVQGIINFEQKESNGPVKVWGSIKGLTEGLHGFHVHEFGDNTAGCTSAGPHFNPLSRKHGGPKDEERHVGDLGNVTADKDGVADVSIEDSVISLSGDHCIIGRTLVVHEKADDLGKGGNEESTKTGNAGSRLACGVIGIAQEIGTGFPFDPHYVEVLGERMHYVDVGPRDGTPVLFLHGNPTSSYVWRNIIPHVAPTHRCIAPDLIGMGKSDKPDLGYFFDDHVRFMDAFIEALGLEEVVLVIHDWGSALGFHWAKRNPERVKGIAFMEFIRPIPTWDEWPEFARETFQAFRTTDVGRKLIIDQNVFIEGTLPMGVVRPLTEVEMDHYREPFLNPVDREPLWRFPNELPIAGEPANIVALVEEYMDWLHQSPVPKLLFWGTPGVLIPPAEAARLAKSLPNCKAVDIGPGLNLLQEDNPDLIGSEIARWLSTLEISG
Description: (§3) (B-C) Excitation and emission spectra of 4 (with misfolded oligomers of SOD1-A4V-Halo) and 5 (with insoluble aggregates of SOD1-A4V-Halo).
(§4) Combination of 4 and 5 enables a two-color imaging strategy to differentiate insoluble aggregates from soluble oligomers. The inventors carried out live cell imaging experiments, wherein 4 or 5 was used to visualize aggregation of POI-Halo fusion proteins in HEK293T cells. […] To this end, the inventors labeled HEK293T cells expressing SOD1-A4V-Halo simultaneously with 4 and 5 (both at 0.5 μM) for 24 h and treated cells with 5 μM MG132 for 8 h. […] The inventors further carried out experiments using Htt-PolyQ with 110 glutamine repeats (Htt-110Q-Halo).

Htt-110Q-Halo = molecular target: T1, Htt-110Q-Halo (Homo sapiens, UniProt P42858); experiment: Two-color imaging of Htt-110Q-Halo in HEK293T cells; format: cell-based
T1 construct: using the Huntingtin exon 1 protein (Htt) with expansion of a polyglutamine tract within its N-terminal domain; expressed in transfected cells; host or cells: HEK293T
T1 sequence (P42858 with tags, fused parts or gaps): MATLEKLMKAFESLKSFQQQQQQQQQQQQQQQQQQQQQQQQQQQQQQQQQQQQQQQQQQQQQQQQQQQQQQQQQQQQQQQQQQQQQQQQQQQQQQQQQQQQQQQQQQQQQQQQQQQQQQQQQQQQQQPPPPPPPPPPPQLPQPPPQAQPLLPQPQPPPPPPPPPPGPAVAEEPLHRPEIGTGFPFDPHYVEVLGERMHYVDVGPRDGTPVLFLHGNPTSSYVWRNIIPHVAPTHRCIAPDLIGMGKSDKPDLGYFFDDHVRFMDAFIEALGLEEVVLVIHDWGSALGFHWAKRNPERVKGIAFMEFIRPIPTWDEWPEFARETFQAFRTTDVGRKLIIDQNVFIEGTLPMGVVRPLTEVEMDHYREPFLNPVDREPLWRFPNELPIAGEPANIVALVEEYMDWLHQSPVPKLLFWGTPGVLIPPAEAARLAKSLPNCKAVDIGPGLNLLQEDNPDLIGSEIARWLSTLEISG
Description: as §3, §4

## CN(C)c1ccc(/C=C2N=C(/C=C/c3ccc(N(CCO)CCO)cc3)N(CC(=O)N[C@H]3CC[C@H](C(=O)NCCOCCOCCCCCCCl)CC3)C\2=O)cc1 [Compound 4, (1r,4r)-4-(2-((Z)-2-((E)-4-(bis(2-hydroxyethyl)amino)styryl)-4-(4-(dimethylamino)benzylidene)-5-oxo-4,5-dihydro-1H-imidazol-1-yl)acetamido)-N-(2-(2-((6-chlorohexyl)oxy)ethoxy)ethyl)cyclohexanecarboxamide]
SOD1(V31A)-Halo [1]
  fluorescence of the Halo-4 conjugate control under heat: remained non-fluorescent under all heat conditions
SOD1(V31A)-Halo [2]
  fluorescence of the SOD1(V31A)-Halo-4 conjugate under heat: increased in the absence of insoluble protein aggregates
SOD1(V31A)-Halo [2]; 54.5° C.
  kinetics of fluorescence increase versus turbidity: much faster than the kinetics of turbidity
  kinetics of fluorescence versus protein misfolding: coincided with the kinetics of protein misfolding
SOD1-A4V-Halo
  fluorescence of perinuclear SOD1 A4V-Halo granules: only exhibited red fluorescence from 4
Htt-110Q-Halo
  fluorescence of Htt-110Q-Halo inclusions: exhibit fluorescence from both 4 and 5
